Assay results reported in US20240382499A1, “INDUCERS OF SENESCENCE, IN COMBINATION WITH A SELECTIVE DEATH RECEPTOR 5 (DR5) AGONIST, FOR USE IN A METHOD OF TREATING CANCER” (Stichting Het Nederlands Kanker Instituut-Antoni van …, priority 2021, published 2024).
Residues, ends and D or L forms follow the SMILES beside them. *: point of attachment. Cbz = O=C(OCc1ccccc1)*; CH2F = FC*

What was measured:
[1] = test system: PC9, TFK, EGI and Hep 1 cancer cells, and BJ and Rpe1 primary cells; test: Dose-response curves (cell titer blue) for NEO2734 in the presence of conatumumab; format: cell-based, human; conditions: 0.5 microgram/ml conatumumab, 96 hours
Source text: FIG. 6: (A) Dose-response curves determined by cell viability using cell titer blue for NEO2734 in the presence of 0.5 microgram/ml conatumumab. Shown are dose response curves for PC9, TFK, EGI and Hep 1 cancer cells, and BJ and Rpe1 primary cells. (B) RNA sequencing results.
PC9 human lung cancer cells, Panc1 human pancreatic cancer cell line of ductal cell origin, Hep3B human epithelial hepatoma cells, H1975 human epithelial lung cancer cells, TFK bile duct cancer cells, EGI bile duct cancer cells, BJ human foreskin fibroblast cells and Rpe1 human retina pigmented epithelial cells were obtained from ATCC.
Cells were seeded into 384 well plates. Drugs were added after 24 hours.
To validate this finding, a BRD2 inhibitor, NEO2734, was used to combine with a DR5 activation antibody (conatumumab) and to test the combination in multiple cancer models, including a pancreatic cancer line of ductal cell origin Panc1, two epithelial hepatoma cell lines Hep3B and Hep1, two bile duct cancer cell lines TFK and EGI, two epithelial cancer lines PC9 and H1975. In addition, two primary cell lines BJ and Rpe1 were used to determine whether this drug combination would be less harmful to healthy cells.

cFLIP (CFLAR) = test: RNA sequencing of NEO2734 treated cells; format: cell-based; conditions: 0.5 μM NEO2734 for 1 week; PC9, TFK, EGI and Hep1
Method: RNA sequencing was performed on PC9, Hep1, EGI and TFK cells treated with 0.5 μM NEO2734 for 1 week. The expression changes of cFLIP and TNFRSF10B (DR5) were plotted.
To investigate the mechanism of this synergy effect from this drug combination, RNA sequencing was performed on NEO2734 treated cells (using four independent cell models PC9, TFK, EGI and Hep1) to identify genes that might be critical for the DR5 signaling pathway. […] This might explain why BRD2 inhibition may enhance the responsiveness of conatumumab.

[2] = test system: proliferating and senescent A549 and Hep1 cells; test: Colony formation of proliferating and therapy-induced senescent A549 and Hep1 cells with NEO2734 and conatumumab; format: cell-based
Method: FIG. 8: Cell viability was assessed by colony formation assay using low doses of NEO2734 and conatumab. (A) Cell viability was assessed by a colony formation assay using low dose 0.25 μM of NEO2734 and 0.125 μg/ml conatumumab on Hep1 cells made senescent by one-week treatment of 0.5 μM alisertib, 1 μM barasertib, 50 nM CFI-400945 or 2 μM Etoposide. (B) Colony formation using low dose 0.25 μM of NEO2734 and 0.125 μg/ml conatumumab on Hep1, 0.25 μM of NEO2734 and 1 μg/ml conatumumab on A549 cells made senescent by one-week treatment of different senescence inducers (0.5 μM PF-06873600, 100 nM doxorubicin, 1 μM TAS-119 or combination of 5 nM trametinib plus 0.5 μM palbociclib.
Cells were treated with 0.5 μM alisertib for 7 days to induce senescence. These cells were seeded into 12 well plates. After 24 hours, the cells were treated with 0.5 μM NEO 2734 and indicated doses of conatumumab for 96 hours. Cells were fixed with 4% paraformaldehyde after 96 hours of drug treatment. The plates were stained with 2 mL 0.5% (w/v) crystal violet in H2O and photographed. Further, colony formation was investigated using 0.25 μM of NEO2734 and 0.125 μg/ml conatumumab on Hep1 cells made senescent by one-week treatment of 0.5 μM alisertib, 1 μM barasertib, 50 nM CFI-400945 or 2 μM Etoposide. Furthermore, colony formation was investigated using 0.25 μM of NEO2734 and 1 μg/ml conatumumab on A549 cells made senescent by one-week treatment of different senescence inducers, namely 0.5 μM PF-06873600, 100 nM doxorubicin or combination of 5 nM trametinib plus 0.5 μM palbociclib. Doxorubicin, PF-06873600, palbociclib and trametinib were purchased from Selleckchem (Houston, TX, USA).

[3] = test system: proliferating and senescent A549 cells; test: Colony formation with low dose IgA-cona-dim, NEO2734 and Z-VAD-FMK; format: cell-based; conditions: 10 μM Z-VAD-FMK; alisertib-induced senescent A549
Method: (§1) FIG. 10: Colony formation in proliferating and alisertib-induced senescent A549 (A), Hep1 (B) and MM231 (C) cells with IgG1-cona or IgA-cona-dim DR5 agonist antibodies. Colony formation in proliferating and alisertib-induced senescent A549 cells treated with the low dose of 0.125 μg/ml IgA-cona-dim, 0.25 μM NEO2734 and 10 μM Z-VAD-FMK (D). Colony formation using low dose 0.25 μM of NEO2734 and 0.125 μg/ml IgA-cona-dim A549 cells made senescent by one-week treatment with 1 μM barasertib, 0.5 μM PF-06873600, 100 nM doxorubicin, 50 nM CFI-400945, 2 μM Etoposide or 1 μM TAS-119 (E).

[4] = test system: alisertib-induced senescent A549, Hep1 and MM231 cells; test: Colony formation with IgG1-cona or IgA-cona-dim DR5 agonist antibodies; format: cell-based; conditions: side-by-side IgG1 and IgA-cona-dim forms of conatumumab
Method: as §1
Antibodies were generated by expression of SEQ 1 and SEQ 3 (IgG1-cona), SEQ 2 and SEQ 3 (IgA-cona), or SEQ 2, SEQ 3 and SEQ 4 (IgA-cona-dim) as described (Beyer et al., 2009. J Immunol Methods 346: 26-37), by employing the nucleotide sequences SEQ 5 and SEQ 6 (IgG1-cona), SEQ 6 and SEQ 7 (IgA-cona), or SEQ 6, SEQ 7 and SEQ 8 (IgA-cona-dim). SEQ 4 depicts a sequence of an immunoglobulin J chain, which links two or more IgA monomer units.

[5] = test system: Alisertib induced senescent and proliferating A549, H2030, H358, HCT116, MDA-MB-231 and MCF-7 cells; test: Viability of alisertib-induced senescent versus proliferating cancer cell line panel (CellTiter-Blue dose response, Incucyte, colony formation); format: cell-based; conditions: alisertib 0.5 μM 7 days induced senescence; treatment 120 hrs; lung, breast, colon and liver cancer models
Method: FIG. 2: (A) Western blot analysis of DR4, DR5, cFLIP in A549 cells treated with different senescence inducers for 1 week. VINC served as loading control. (B) A549 cells were firstly treated with 0.5 μM alisertib for 7 days to induce senescence. Afterwards, the senescent cells were suspended from alisertib, re-seeded in a 96-well plate then switched to 200 ng/ml recombinant Lz-TRAIL. The growth curves were measured by Incucyte cell proliferation assay. (C) Alisertib induced senescent and proliferating A549, H2030, H358, HCT116, MDA-MB-231 and MCF-7 cells were seeded into a 384-well plate and treated with Lz-TRAIL for 120 hrs. Cell viability were measured using CellTiter-Blue to generate dose response curve. (D) Senescence associated beta-galactosidase (SA-β-gal) staining in a cell line panel after treated with 0.5 μM alisertib for one week. (E) Cell viability […] was assessed by colony formation assay in the cell line panel. The cells were firstly treated with 0.5 μM alisertib for 7 days to induce senescence. […]
FIG. 3: (A) Human NF-kB pathway protein array analysis on the senescent A549 cells generated with 0.5 μM alisertib for 7 days. […] (C) Cell viability was assessed by colony formation assay in the A549 cells lentiviral shRNAs against DR4 or DR5. […] Cell viability were measured using CellTiter-Blue to generate dose response curve.

Hep1 liver cancer cells = test: Tumor growth of Hep1 xenografts in Balb/c nude mice; format: in vivo; conditions: Hep1 xenograft; 30 mg/kg alisertib oral gavage, 5 μg conatumumab intraperitoneal, week days
Method: (§2) FIG. 4: (A) Tumor growth of Hep1 parental cells in the flanks of Balb/c nude mice subcutaneously injected with 1*10^7 cells. When tumors reached approximately 200 mm^3, assigned to either control, 30 mg/kg alisertib (oral gavage), 5 μg conatumumab (intraperitoneal injection) and the combination. The drugs were administrated during week days and suspended during the weekend. (B) Tumor growth of A549 parental cells in the flanks of Balb/c nude mice subcutaneously injected with 5*10^6 cells. When tumors reached approximately 200 mm3, assigned to either control, 30 mg/kg alisertib (oral gavage), 10 μg conatumumab (intraperitoneal injection) and the combination. The drugs were administrated during week days and suspended during the weekend. (C-E) Cell viability was assessed by colony formation assay in the A549 and Hep1 cells. The cells were firstly treated with different senescence inducers for 7 days to induce senescence. Afterwards, the senescent cells were suspended from the senescence inducers then re-seeded in a 12-well plate and switched to conatumumab or Lz-TRAIL treatment for 5 days. Proliferating cells were taken as a control. At the end of assay, cells were fixed, stained, and photographed.
(§3) To test the treatment in vivo, we engrafted Hep1 liver cancer cells and A549 lung cancer cells into immunodeficient nude mice. […]

A549 lung cancer cells = test: Tumor growth of A549 xenografts in Balb/c nude mice; format: in vivo; conditions: A549 xenograft; 30 mg/kg alisertib oral gavage, 10 μg conatumumab intraperitoneal, week days
Method: as §2, §3

[6] = test system: senescent A549 and Hep1 cells; test: Colony formation of A549 and Hep1 cells made senescent with other senescence inducers; format: cell-based; conditions: A549 and Hep1 made senescent with PLk4 inhibitor, etoposide and barasertib; treatment 5 days
Method: as §2

senescent cells = test: Killing of senescent cells by conatumumab in vitro, time; format: cell-based
PC9, Hep1 and A549 = conditions: 0.5 microgram/ml conatumumab
Method: FIG. 7: (A) Cell viability for the BRD2 inhibitor iBET in the presence of 0.5 microgram/ml conatumumab. […] Cells were seeded into 384 well plates. Drugs were added after 24 hours. Cell viability was measured using cell titer blue after 96 hours of drug treatment.

Question: With `Cc1cc(-c2ccc3nc(C4CCOCC4)n(CCOC(F)(F)F)c3c2)cn(C)c1=O` [NEO2734, 1,3-dimethyl-5-[2-(oxan-4-yl)-3-[2-(trifluoromethoxy)ethyl]benzimidazol-5-yl]pyridin-2-one] as the compound, how does the “effect on conatumumab responsiveness in primary cells (cell viability)” value ([1]; BJ and Rpe1 primary cells) read?
Answer: Its value is “not in primary cells”.

Question: What about the “effect on conatumumab responsiveness in cancer cells (cell viability)” value ([1]; cancer cells) of the same compound?
Answer: Its value is “enhance the conatumumab responsiveness”.

Question: What about the “cFLIP (CFLAR) expression change” value (cFLIP (CFLAR)) of the same compound?
Answer: Its value is “highly down-regulated”.

Question: And the “effect on senolytic effect of DR5 activation (colony formation)” value ([2]; alisertib-induced senescent and proliferating A549 (1 μg/ml conatumumab) and Hep1 (0.125 μg/ml conatumumab))?
Answer: The value was “improve the senolytic effect of DR5 activation”.

Question: Which “rescue from IgA-cona-dim plus NEO2734 mediated senolysis” value [3] does the source give for `COC(=O)C[C@H](NC(=O)[C@H](C)NC(=O)[C@@H](NC(=O)OCc1ccccc1)C(C)C)C(=O)CF` [Z-VAD-FMK] (Cbz-Val-Ala-Asp(OMe)-CH2F) here?
Answer: Its value is “fully rescue the cells from senolysis”.

Question: Which “senolytic potency compared with IgG form” value [4] does the source give for “IgA-cona-dim: dimeric form of IgA-conatumumab, SEQ 2, SEQ 3 and SEQ 4 (J chain)” here?
Answer: Its value is “most potent DR5 agonist to eliminate senescent cells”.

Question: Which “killing of senescent versus proliferating cells (cell viability)” value [5] does the source give for “conatumumab: DR5 agonistic IgG1 antibody; purchased from Creative Biolabs, or generated by expression of SEQ 1 and SEQ 3” here?
Answer: The value was “selective killing of senescent cells”.

Question: And the tumor growth (Hep1 liver cancer cells)?
Answer: The tumor growth was “limited tumor growth inhibition”.

Question: What about the tumor growth (A549 lung cancer cells) of the same compound?
Answer: Its tumor growth is “limited tumor growth inhibition”.

Question: What about the “senolytic effect (colony formation)” value [6] of the same compound?
Answer: The value was “strong senolytic effect”.

Question: What about the “dosage that will not lead to a significant impact on alisertib induced senescent cells” value ([2]; A549, titration) of the same compound?
Answer: The value was 1 µg/mL.

Question: What about the “dosage that will not lead to a significant impact on alisertib induced senescent cells” value ([2]; Hep1, titration) of the same compound?
Answer: The value was 0.125 µg/mL.

Question: And the “time in which senescent cells are killed” value (senescent cells)?
Answer: The value was 24 h.

Question: iBET was tested. Which “effect on conatumumab responsiveness (cell viability)” value (PC9, Hep1 and A549) did it give?
Answer: Its value is “efficiently enhance the responsiveness of conatumumab”.
